Source: PubChem BioAssay AID248 (DTP/NCI, 2004)
Values joined by “and” are separate entries in the source; they are usually repeats but may differ in a detail not shown here. Equal entries are not always repeated. Inconclusive results and toxic doses are left out. Cut-off read from the data, not from the text of the source: active = T/C of 150% or more; inactive = T/C below 125%.

Tested on: L1210 leukemia ip in BDF1 mice, survival T/C
Test: NCI In Vivo Anticancer Drug Screen. Data for tumor model L1210 Leukemia (intraperitoneal) in B6D2F1 (BDF1) mice
Details: endpoint: mean survival time, higher = longer survival
How it was run: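 In this screen, tumor-bearing mice given compound are compared to those given vehicle, and their survival values are reported as a treated-to-control quotient.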

[1] = dose: 50.0 mg/kg/injection, schedule: Q01DX001 (ip), vehicle: saline
[2] = dose: 100.0 mg/kg/injection, schedule: Q01DX001 (ip), vehicle: saline
[3] = dose: 200.0 mg/kg/injection, schedule: Q01DX001 (ip), vehicle: saline
[4] = dose: 400.0 mg/kg/injection, schedule: Q01DX001 (ip), vehicle: saline
[5] = dose: 25.0 mg/kg/injection, schedule: Q01DX009 (ip), vehicle: Klucel (hydroxypropylcellulose) (HPC)
[6] = dose: 50.0 mg/kg/injection, schedule: Q01DX009 (ip), vehicle: Klucel (hydroxypropylcellulose) (HPC)
[7] = dose: 100.0 mg/kg/injection, schedule: Q04DX003 (ip), vehicle: Klucel (hydroxypropylcellulose) (HPC)
[8] = dose: 200.0 mg/kg/injection, schedule: Q04DX003 (ip), vehicle: Klucel (hydroxypropylcellulose) (HPC)
[9] = dose: 400.0 mg/kg/injection, schedule: Q04DX003 (ip), vehicle: Klucel (hydroxypropylcellulose) (HPC)
[10] = dose: 100.0 mg/kg/injection, schedule: Q01DX009 (ip), vehicle: Klucel (hydroxypropylcellulose) (HPC)
[11] = dose: 200.0 mg/kg/injection, schedule: Q01DX009 (ip), vehicle: Klucel (hydroxypropylcellulose) (HPC)
[12] = dose: 50.0 mg/kg/injection, schedule: Q04DX003 (ip), vehicle: Klucel (hydroxypropylcellulose) (HPC)

Measured: T/C

C/C(=C\C(C)(C)c1ccccc1)c1ccccc1 (tested in a mixture with another compound)
inactive: [1] 90 % of control | [2] 96 % of control | [3] 113 % of control | [4] 116 % of control

NCCN1CCc2ccccc2C1
inactive: dose: 6.25 mg/kg/injection, schedule: Q01DX009 (ip), vehicle: saline 93 % of control | dose: 12.5 mg/kg/injection, schedule: Q01DX009 (ip), vehicle: saline 106 % of control | dose: 25.0 mg/kg/injection, schedule: Q01DX009 (ip), vehicle: saline 102 % of control

CNC(=O)Nc1nnnc2ccccc12
inactive: dose: 25.0 mg/kg/injection, schedule: Q04DX003 (ip), vehicle: saline with Tween-80 92 % of control | dose: 50.0 mg/kg/injection, schedule: Q04DX003 (ip), vehicle: saline with Tween-80 94 % of control | dose: 100.0 mg/kg/injection, schedule: Q04DX003 (ip), vehicle: saline with Tween-80 89 % of control

O=[N+]([O-])c1cc(S(=O)(=O)Oc2ccccc2)ccc1Cl
inactive: dose: 12.5 mg/kg/injection, schedule: Q01DX009 (ip), vehicle: Klucel (hydroxypropylcellulose) (HPC) 105 % of control | [5] 105 % of control | dose: 50.0 mg/kg/injection, schedule: Q01DX001 (ip), vehicle: carboxymethylcellulose (CMC) 116 % of control | [6] 100 % of control | dose: 100.0 mg/kg/injection, schedule: Q01DX001 (ip), vehicle: carboxymethylcellulose (CMC) 100 % of control | [7] 98 % of control | dose: 200.0 mg/kg/injection, schedule: Q01DX001 (ip), vehicle: carboxymethylcellulose (CMC) 100 % of control | [8] 103 % of control | dose: 400.0 mg/kg/injection, schedule: Q01DX001 (ip), vehicle: carboxymethylcellulose (CMC) 105 % of control | [9] 89 % of control

CC1=C2CC(C)(C)/C=C\C(=O)/C(C)=C\C3=C[C@H](C)C[C@]3(O2)C1=O
inactive: dose: 11.0 mg/kg/injection, schedule: Q01DX009 (ip), vehicle: saline 112 % of control | dose: 16.0 mg/kg/injection, schedule: Q01DX009 (ip), vehicle: saline 106 % of control | dose: 24.0 mg/kg/injection, schedule: Q01DX009 (ip), vehicle: saline 116 % of control

CNNCc1ccccc1
inactive: [2] 117 % of control | [3] 115 % of control

CCCCCOC(=O)C(C(=O)OCCCCC)(C(=O)OCCCCC)C(=O)OCCCCC
inactive: [2] 100 % of control | [3] 104 % of control | [4] 95 % of control

O=C1OC2(CCNCC2)C(=O)N1c1ccc(F)cc1
inactive: dose: 12.5 mg/kg/injection, schedule: Q01DX001 (ip), vehicle: carboxymethylcellulose (CMC) 104 % of control | dose: 25.0 mg/kg/injection, schedule: Q01DX001 (ip), vehicle: carboxymethylcellulose (CMC) 101 % of control

CN1CC2CCCCC1C2OC(=O)C(c1ccccc1)c1ccccc1 (centres undefined)
inactive: dose: 75.0 mg/kg/injection, schedule: Q01DX001 (ip), vehicle: saline 110 % of control | dose: 150.0 mg/kg/injection, schedule: Q01DX001 (ip), vehicle: saline 101 % of control

Cc1ccc(C)c(NC(=O)c2ccccc2N)c1
inactive: [10] 98 % of control | [7] 104 % of control | [11] 93 % of control | [8] 97 % of control | dose: 400.0 mg/kg/injection, schedule: Q01DX009 (ip), vehicle: Klucel (hydroxypropylcellulose) (HPC) 93 % of control | [9] 92 % of control

O=C(Nc1ccc(F)c([N+](=O)[O-])c1)Oc1cc(=O)oc2ccccc12
inactive: dose: 25.0 mg/kg/injection, schedule: Q04DX003 (ip), vehicle: Klucel (hydroxypropylcellulose) (HPC) 104 % of control | [12] 101 % of control | dose: 75.0 mg/kg/injection, schedule: Q01DX001 (ip), vehicle: Klucel (hydroxypropylcellulose) (HPC) 102 % of control | dose: 75.0 mg/kg/injection, schedule: Q01DX009 (ip), vehicle: Klucel (hydroxypropylcellulose) (HPC) 93 % of control and 103 % of control | [10] 103 % of control and 92 % of control | dose: 100.0 mg/kg/injection, schedule: Q04DX002 (ip), vehicle: Klucel (hydroxypropylcellulose) (HPC) 95 % of control and 107 % of control | [7] 98 % of control | dose: 150.0 mg/kg/injection, schedule: Q01DX001 (ip), vehicle: Klucel (hydroxypropylcellulose) (HPC) 102 % of control | dose: 150.0 mg/kg/injection, schedule: Q01DX009 (ip), vehicle: Klucel (hydroxypropylcellulose) (HPC) 87 % of control and 92 % of control | [11] 97 % of control | dose: 200.0 mg/kg/injection, schedule: Q04DX002 (ip), vehicle: Klucel (hydroxypropylcellulose) (HPC) 100 % of control and 102 % of control | dose: 300.0 mg/kg/injection, schedule: Q01DX001 (ip), vehicle: Klucel (hydroxypropylcellulose) (HPC) 107 % of control | dose: 400.0 mg/kg/injection, schedule: Q04DX002 (ip), vehicle: Klucel (hydroxypropylcellulose) (HPC) 95 % of control and 96 % of control

Cc1ccc(C(C)(N=[N+]=[N-])c2ccccc2)cc1C (centres undefined)
inactive: [2] 93 % of control | [3] 96 % of control | [4] 109 % of control

OCC1(CO)COC(c2ccccc2)OC1
inactive: [5] 101 % of control | [6] 101 % of control | [12] 97 % of control | [10] 108 % of control | [7] 90 % of control

CC(C)(CO)NC(=O)CC1CCCCC1
inactive: dose: 100.0 mg/kg/injection, schedule: Q01DX009 (ip), vehicle: saline with Tween-80 96 % of control | dose: 200.0 mg/kg/injection, schedule: Q01DX009 (ip), vehicle: saline with Tween-80 97 % of control | dose: 400.0 mg/kg/injection, schedule: Q01DX009 (ip), vehicle: saline with Tween-80 97 % of control

O=C1OC2C(O)C(CO)OC2n2c1cc(=O)[nH]c2=O (centres undefined)
inactive: dose: 100.0 mg/kg/injection, schedule: Q01DX005 (ip), vehicle: saline 111 % of control | dose: 200.0 mg/kg/injection, schedule: Q01DX005 (ip), vehicle: saline 104 % of control

CCOC(=O)c1cnc(C)nc1Nc1ccccc1Br
inactive: [7] 98 % of control | [8] 93 % of control | [9] 101 % of control

Ic1cccc(/C=N/Nc2nnc(N/N=C/c3cccc(I)c3)c3ccccc23)c1
inactive: [1] 102 % of control | [2] 102 % of control | [3] 102 % of control | [4] 108 % of control

CNC1C(OC2C(OC3C(O)C(O)C(N=C(N)N)C(O)C3N=C(N)N)OC(C)C2(O)C=O)OC(CO)C(O)C1O (centres undefined)
inactive: [2] 108 % of control | [3] 106 % of control | [4] 114 % of control
